From patent publication US5571799A, “(2'-5') oligoadenylate analogues useful as inhibitors of host-v5.-graft response” (Basco, Ltd., priority 1994, dated 1996)
“Also recorded” adds a separate entry of the source.

Assays:
transplanted kidney = test: Kidney allotransplantation using chinchilla rabbits; assay type: in vivo
Protocol: Kidney allotransplantations were performed using chinchilla rabbits of the same sex, weighing 5.0-6.5 kg. In the series of 10 rabbits, allogenic kidneys were transplanted on the neck vessels, rabbit ureter was taken outside for performing ureterocutaneostoma. Anastomosis was performed on the donor kidney vessels according to the "end-into-end" pattern, with the external carotid artery and the jugular vein joined by means of their preliminary cannulation and fixation by the cannulae with the recipient vessels.
The recipient rabbits had combined anesthesia: intravenous introduction of hexenal at a rate of 10 mg per 1.0 kg. body weight was supplemented by local anesthesia with 0.25-0.5% novocaine solution up to 15.0 ml. An intact rabbit served as a kidney donor, whose kidneys were exposed by means of transperitoneal access and perfused with 500 ml of Eurocollins solution, in situ. Simultaneously with the kidney perfusion, kidney vessels and ureters were utilized, the latter being cut at the level of iliac vessels. Having performed perfusion without extracting a kidney from the donor, kidney vessels were cannulated from the aorta and vena cava, the canulae were fixed with separate ligatures and the vessels were released. After this, the kidney was extracted.
The organs were preserved at the temperature of melting ice. Then we proceeded directly to kidney transplantation. The preservation lasted for about 2.5-3.0 hours and thermal ischemia (secondary) duration was 30-40 minutes.
Immunosuppression was performed by IV injection of (2'-5')A2 Ar-epoxy at a dose of 5 μg per 1.0 kg body weight at 0.1 ml of the physiologic solution daily until the conclusion of the experiment. During the first two weeks of the post-operative period, blood was taken for immunological analysis; BTR with PHA and Concanavalin A were tested.
The results of the experiments were evaluated clinically, by the presence or absence of urination from the ureterocutaneostoma and by the behavior of the experimental animals.

T-suppressors = T-suppressors in monkeys after kidney transplantation; assay type: in vivo, Macaque Rh. monkeys; conditions: for T-suppress: 50 μg/kg IV, 2 days pre-op. 44
Protocol: (§1) FLOW CYTOFLUOROGRAFIC ANALYSIS OF LYMPHOCYTE SUBSETS
(§2) Blood samples (100 μl of whole blood) were placed into a 12×17 tube. To these cells 20 μl of purified monoclonal antibodies were added with specificity for human cytotoxic/suppressor cells anti-Leu-2a (CD8), human helper/inducer anti-Leu-3a (CD4) and FITC conjugated monoclonal antibodies with specificity for natural killer cells-anti-Leu11c (CD16) (Becton Dickinson, San Jose). After 30 minutes incubation on ice, the cells were washed once and 20 μl of goat-antimouse chain phycoerythrin (Sigma P1286) conjugate were added to the tube with anti-Leu-2a and anti-Leu-3a monoclonal antibodies.
(§3) After erythrocyte lysing with FACS lysing solution (Becton Dickinson, San Jose) the cells were analyzed on FACScan flow cytometer (Becton Dickinson, San Jose) with scatter gate set on lymphocyte fraction.
(§4) The experiments were performed on 4 year-old Macaque Rh. monkeys. Each cohort consisted of 3 animals. […] The results of the experiments were evaluated clinically: by the presence or absence of urination from the ureterocutaneostoma.
After intravenous anesthesia with Ketalar®, an extraperitoneal access to the left kidney was performed through layer by layer cuts to the left lumbar region. The kidney was excised from the surrounding tissues. A clamp was applied to the vessel limb; the artery, the vein and the ureter each were prepared for anastomosis separately. The kidney was excised and transferred for hypothermal conservation in Collins' solution.
The donor kidney was transplanted into the recipient. […] anastomosis was performed: the graft arteries and veins attached to the appropriate recipient kidney vessels through plastic tubes. The kidney having been resuscitated by in blood flow, acquired the normal color and turgor. Additional hemostasis in the wound was performed. Ureterocutaneostomy was performed, which was followed by applying layer-upon-layer sutures on the wound and its aseptic dressing.
The monkeys were narcotized by means of the intravenous anesthesia with Ketalar® and subjected to medial laparotomy from the xiphoid down to the pubic joint. Access to the left Kidney was made extraperitoneally. The kidney was teased from the surrounding tissues. A clamp was put on the vessel limb; the artery, the vein and the ureter were dressed separately; the kidney was cut and transferred for hypothermal conservation in Collins' solution.
The internal iliac artery and the external iliac vein were extracted extra-peritoneally, immobilized and prepared for anastomosis. The donor kidney was transferred to the recipient. Vessel anastomosis was performed: the graft arteries were anastomosed with the internal iliac artery according to the end-to-end method and the graft veins were anastomosed with the external iliac vein according to the end-to-side method. The kidney having been engaged in blood flow, acquired a normal color and turgor. Bleeding on the line of the arterial anastomosis was stopped by making additional sutures. Ureterocutaneostomy was performed. The abdominal cavity was lavaged with the solution of disodium carbenicillin. Layer-upon-layer sutures on the wound were applied. Aseptic dressing was performed.
During our experiments we have divided monkeys into two groups, three monkeys to each group. For the first group (2'-5')A2 Ar-epoxy was administered intravenously at concentration of 50 μg/kg two days before the operation and at the second, sixth, and twelfth day after the operation and then every sixth day. […] After transplantation kidney functions were restored within 10 hours.
The administration schedule of (2'-5')A2 Ar-epoxy was modified slightly for the second group of monkeys. The preparation was injected two days before the operation and every other day at a concentration of 50 μg/kg during the entire post-transplantation period. […] The number of T-helpers dropped correspondingly from 37% to 7%. […] During the entire postoperative period, this activity tendency continues.

T-killers = T-killers in monkeys after kidney transplantation; assay type: in vivo, Macaque Rh. monkeys; conditions: second group, 50 μg/kg every other day
Protocol: as §1, §2, §3, §4
After intravenous anesthesia with Ketalar®, an extraperitoneal access to the left kidney was performed through layer by layer cuts to the left lumbar region. The kidney was excised from the surrounding tissues. […]

T-killers and T-helpers = test: Immunosuppressive activity in vivo in monkeys; parameters: species or system Macaque Rh. monkeys
Protocol: The experiments were performed on 4 year-old Macaque Rh. monkeys. The levels of the principal subpopulations of T-lymphocytes, IgA, IgG, IgM and the amount of α- and γ-interferon and interleukin II after administration (2'-5')olygoadenylate and its analogies at the concentration of 50 and 25 μg/kg of the body weight was investigated.
as §1, §2, §3

[1] = test system: natural compound 2'-5'A3 in blood plasma and blood cells; test: Duration of activity in the blood of rabbits (radioimmune and fluoroimmune detection); assay type: in vivo; conditions: 10 min after one injection, 10 μg/kg, rabbit
Excerpt: Duration of (2'-5')A2 Ar-epoxy Activity in the Blood of Rabbits
In order to study (2'-5')A2 Ar-epoxy pharmacodynamics, the radioimmune and fluoroimmune techniques were developed for its detection in tissue.

Adenylyl (2'-5')adenylyl (2'-5')-9-(2,3-anhydro-β-D-ribofuranosyl) adenine disodium salt [(2'-5')A2 Ar-epoxy]
animals with positive results (graft function) (transplanted kidney; 10 rabbits, 5 μg/kg daily IV): four
rabbits with no graft function in the early postoperative period (transplanted kidney; 10 rabbits, probably vesicular thrombosis): four
time to death after nephrectomy (transplanted kidney; another rabbit): ≤ 48 h
rabbits with generalized viral infection of the respiratory tract (transplanted kidney; fatal): 2 rabbits
duration of function of the grafted kidney (transplanted kidney; first group, four animals, 5 μg/kg daily IV): at least 2 months
death after transplantation (wound suppuration, sepsis) (transplanted kidney; fourth group, single rabbit): death within the first week after transplantation
graft function after ablation of contralateral kidney, in words (transplanted kidney; one rabbit, 1 month after operation): the grafted kidney continued functioning
period of normal functioning of the transplanted kidney (transplanted kidney; rabbits, IV 5 μg/kg (summary)): 3 months
T-suppress (T-suppressors; day 1 post-op.): 40.6%
T-suppress (T-suppressors; day 5 post-op.): 44%
T-suppress (T-suppressors; day 8 post-op.): 47%
T-suppress (T-suppressors; day 13 post-op.): 47.7%
T-suppress (T-suppressors; day 18 post-op.): 57.5%
effect on T-suppressors in transplanted animals, in words (T-suppressors; post-transplantation, 50 μg/kg, disodium salt): stimulates the number of T-suppressor cells in transplanted monkeys; also recorded: stimulates somewhat the number of T-suppressors
quantity of T-suppressors (T-suppressors; second group, 50 μg/kg every other day, 7 days after surgery, presurgical 44%): 49%
T-killers, in words (T-killers): Analogous suppression effect
immunosuppressive activity, in words (T-killers and T-helpers; monkeys, IV, disodium salt): suppresses significantly the number of T-lymphocytes in blood after only 48 hours; also recorded: strong immunosuppressive activity specifically against T-killers and T-helpers; also recorded: suppressed more actively the number of T-killer and T-helpers
increase of the quantity of the subpopulation of T-helpers and T-killers (T-killers and T-helpers; single IV injection (Table 10 experiment, 500 μg/kg)): about 50%
suppression of the number of T-killers and T-helpers (T-killers and T-helpers; single IV injection, 48 hours, monkeys): 50%
decrease of the level of natural compounds in blood plasma [1]: 10 fold
increase of concentration of natural compounds in blood cells [1]: 10 fold
